This note sets out measurements from PubChem BioAssay (NCI).

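Values below derive from 48-hour exposures of cells grown in 96-well plates, with endpoints linearly interpolated between the two concentrations bracketing the appropriate inhibition level. GI50: concentration for 50% inhibition of growth. TGI denotes the concentration required for complete inhibition of growth.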

Common to all, as to assay: NCI-60 cell line screen, 48 h
Experiment [1] deals with HL-60(TB) leukemia.
For experiment [2], the system named is SF-268 CNS.
Experiment [3] concerns 786-0 renal.
In experiment [4] the test system is HCT-15 colon.
Experiment [5] relates to IGROV1 ovarian.
Experiment [6] relates to UO-31 renal.
For experiment [7], the system named is SK-MEL-2 melanoma.
In experiment [8] the test system is CAKI-1 renal.
For experiment [9], the system named is SK-MEL-5 melanoma.

Regarding `C[C@H]1NC(=O)C2CCCCN2C(=O)CN(C)C(=O)CNC(=O)C2CCCCN2C(=O)[C@@H](NC(=O)c2nc3ccccc3cc2O)[C@@H](C)NC(=O)C2CCCCN2C(=O)CN(C)C(=O)CNC(=O)[C@@H]2CCCCN2C(=O)C1NC(=O)c1nc2ccccc2cc1O` (some centres not stated), the TGI in [1] is 4.72 µM; in experiment [2], 0.934 µM; in experiment [3] it was 31.8 µM; in experiment [4] it was greater than 100 µM; in [5], greater than 100 µM; in experiment [6], 0.984 µM. Moreover, the TGI in experiment [7] is 0.23 µM; in experiment [8], 0.768 µM.
As to `CC(=O)n1c2c(c(=O)n1-c1ccccc1)S(=O)CCC2` (configuration not stated), the TGI was greater than 70 µM in [1]; greater than 100 µM in [2]; greater than 78.6 µM in experiment [3]; greater than 100 µM in experiment [9]; greater than 100 µM in experiment [4]; greater than 100 µM in experiment [5]. Moreover, the TGI in experiment [6], in [7] and in [8] was greater than 100 µM each time.
Consider `COc1ccc(-c2cc(-c3ccccc3)c(C#N)c(=O)n2C2OC(CO)C(O)C(O)C2O)cc1` (configuration not stated), for which the TGI in [1], in experiment [2], in experiment [3], in experiment [9], in [4] and in [5] was greater than 100 µM throughout. This compound gave a TGI in [6] greater than 100 µM.
Take `CCOc1ccc2nc(S/C(=C/C=C(C#N)C#N)c3ccc(C)cc3)sc2c1`: the GI50 in experiment [1] was 4.55 µM; in experiment [2] it was 30 µM; in experiment [3], 21.9 µM; in experiment [9], 22.1 µM; in [4], 12.2 µM; in experiment [5], 54.5 µM. The GI50 in experiment [6] was 36.2 µM; in experiment [8], 17.1 µM. Besides, the TGI in experiment [1] is 20.4 µM; in [2] it was greater than 100 µM; in [3], 46.8 µM; in experiment [9], 57.4 µM; in experiment [4], 28.8 µM; in experiment [5], greater than 100 µM. Also, the values for the TGI in experiment [6] and in experiment [8] were greater than 100 µM and 54.6 µM, respectively.
As to `O=C(CSc1nnc(-c2ccc(N=Cc3ccc(Cl)cc3)cc2)o1)Nc1ccc(Cl)cc1`, the TGI in [1], in experiment [2], in [3], in [9], in experiment [4] and in experiment [6] was greater than 100 µM each time. The compound also came in with a TGI in experiment [7] greater than 100 µM.
On to `O=C(Nc1cc(Cl)ccc1Cl)c1cc2cccc(Cl)c2oc1=O`, for which the TGI in [1], in experiment [3], in experiment [9], in [4] and in [5] was greater than 100 µM in each case.
Regarding `O=C1CC(C[C@H](O)C2CCCCC2O)CC(=O)N1Cc1ccccc1` (some centres not stated), the TGI in experiment [1], in experiment [2], in experiment [3], in experiment [9], in [5] and in experiment [6] was greater than 100 µM in each case. In addition, the TGI in [7] and in experiment [8] was greater than 100 µM throughout.
Regarding `Cc1ccc(Cn2c(C)nc3c2C(=O)c2ccccc2C3=O)cc1`, the TGI is 41 µM in experiment [1]; 36.9 µM in experiment [2]; 19.7 µM in experiment [3]; 19.5 µM in experiment [9]; 60 µM in experiment [4]; greater than 100 µM in experiment [5]. Moreover, the values for the TGI in experiment [6] and in [7] were greater than 100 µM and 45.6 µM, respectively.
Take `CCOc1ccc(N2C(=O)/C(=C/c3ccc(N(CCC#N)CCC#N)cc3)N=C2c2cc([N+](=O)[O-])ccc2Cl)cc1`: the TGI in experiment [1] was greater than 100 µM; in [2] it was greater than 100 µM; in experiment [3] it was 26.4 µM; in experiment [9], 34.6 µM; in [4], greater than 100 µM; in experiment [6], greater than 100 µM. The TGI was greater than 100 µM in experiment [7] and 87.1 µM in experiment [8].
For `CCOC(=O)C(C)(C)Oc1ccc2c(C)c(-c3ccc(Cl)cc3)c(=O)oc2c1`, the TGI in [1] was greater than 100 µM; in experiment [2] it was greater than 100 µM; in experiment [3], greater than 100 µM; in experiment [9], 35 µM; in [4], greater than 100 µM; in experiment [5], greater than 100 µM. Moreover, the TGI in [6] and in experiment [7] was greater than 100 µM each time.
In the case of `CCC1C2C=CC(CC2)N1S(=O)(=O)c1ccc(C)cc1` (configuration not stated), the TGI in [1] was 19.5 µM; in experiment [2], 67.3 µM; in experiment [3] it was greater than 100 µM; in experiment [9] it was 36.1 µM; in [4] it was 73.5 µM; in experiment [6], 39.2 µM. Moreover, the TGI was 28.3 µM in experiment [7] and greater than 100 µM in experiment [8].
